In ChEMBL document CHEMBL3352803, “Peripherally restricted CB1 receptor blockers” (Bioorg Med Chem Lett, 2013):

Legend:
Cannabinoid receptor 1 [1] = molecular target: T1, Cannabinoid receptor 1 (Rattus norvegicus, UniProt P20272); experiment: Antagonist activity at rat CB1 receptor
Rattus norvegicus [2] = experiment: Receptor occupancy at CB1 receptor in rat frontal cortex at 3 to 10 mg/kg, po; format: functional; conditions: dose mg/kg 3-10
Cannabinoid receptor 1 [3] = molecular target: T2, Cannabinoid receptor 1 (Homo sapiens, UniProt P21554); experiment: Inverse agonist activity at human CB1 receptor
T2 sequence (P21554 whole entry): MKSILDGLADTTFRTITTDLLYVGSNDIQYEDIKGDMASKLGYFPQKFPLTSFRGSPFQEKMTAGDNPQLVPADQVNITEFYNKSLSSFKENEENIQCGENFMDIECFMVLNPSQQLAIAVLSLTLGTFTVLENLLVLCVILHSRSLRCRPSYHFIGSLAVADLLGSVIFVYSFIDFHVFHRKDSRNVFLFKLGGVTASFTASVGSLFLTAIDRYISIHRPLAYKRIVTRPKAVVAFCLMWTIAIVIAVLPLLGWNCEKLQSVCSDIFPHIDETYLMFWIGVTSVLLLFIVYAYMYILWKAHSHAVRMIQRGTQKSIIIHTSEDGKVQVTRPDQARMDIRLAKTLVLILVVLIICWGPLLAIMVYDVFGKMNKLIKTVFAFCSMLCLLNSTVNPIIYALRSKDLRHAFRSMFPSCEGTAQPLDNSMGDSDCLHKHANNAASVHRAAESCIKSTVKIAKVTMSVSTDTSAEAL

Cannabinoid receptor 1 [4] = molecular target: T1, Cannabinoid receptor 1; experiment: Inverse agonist activity at rat CB1 receptor
Mus musculus = experiment: Ex vivo binding affinity at CB1 receptor in mouse at 10 mg/kg, iv; format: functional
Nucleic Acid [5] = experiment: Ratio of drug uptake in plasma to brain of po dosed mouse; format: ADME, organism-based; conditions: in vivo
Cannabinoid receptor 1 [6] = molecular target: T2, Cannabinoid receptor 1; experiment: Binding affinity at CB1 receptor (unknown origin)
Nucleic Acid [7] = experiment: Ratio of drug uptake in plasma to brain of C57BL/6J mouse; format: ADME; conditions: in vivo
Rattus norvegicus [8] = experiment: Receptor occupancy at CB1 receptor in rat frontal cortex at 10 mg/kg, po; format: functional
Rattus norvegicus [9] = species: Rattus norvegicus; experiment: Receptor occupancy at CB1 receptor in diet-induced obese rat assessed as weight loss; format: functional
Cannabinoid receptor 1 [10] = molecular target: T2, Cannabinoid receptor 1; experiment: Binding affinity to human CB1 receptor
[11] = Protein binding in rat plasma at 10 mg/kg; format: ADME, organism-based; design: dose 10 mg/kg; conditions: read-out: PPB
[12] = Cmax in rat at 10 mg/kg; format: ADME, organism-based; design: dose 10 mg/kg; conditions: in vivo
[13] = Lipophilicity, log D of the compound; format: physicochemical; conditions: octanol/water
Brain [14] = experiment: Drug uptake in rat brain; format: ADME, tissue-based; conditions: in vivo, read-out: Drug uptake
Cannabinoid receptor 1 [15] = molecular target: T2, Cannabinoid receptor 1; experiment: Antagonist activity at human CB1 receptor
Brain [16] = experiment: Drug uptake in mouse brain; format: ADME, tissue-based; conditions: in vivo, read-out: Drug uptake

T1 sequence (P20272 whole entry): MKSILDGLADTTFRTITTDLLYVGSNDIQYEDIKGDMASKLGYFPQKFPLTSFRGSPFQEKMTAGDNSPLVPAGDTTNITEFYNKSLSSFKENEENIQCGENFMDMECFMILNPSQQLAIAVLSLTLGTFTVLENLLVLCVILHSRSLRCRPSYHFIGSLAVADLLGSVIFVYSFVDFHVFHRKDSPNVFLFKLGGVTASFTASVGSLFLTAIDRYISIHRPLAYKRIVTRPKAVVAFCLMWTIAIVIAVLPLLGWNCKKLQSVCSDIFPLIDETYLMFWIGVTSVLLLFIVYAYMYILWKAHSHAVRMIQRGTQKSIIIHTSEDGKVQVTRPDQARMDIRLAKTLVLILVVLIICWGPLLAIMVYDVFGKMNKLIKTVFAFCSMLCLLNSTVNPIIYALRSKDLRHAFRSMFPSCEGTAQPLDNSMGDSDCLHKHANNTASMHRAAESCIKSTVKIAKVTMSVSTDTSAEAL

## Cc1c(/C=C/C(=O)NCc2cccc(Cl)c2)nn(-c2ccc(Cl)cc2Cl)c1-c1ccc(Cl)cc1
Cannabinoid receptor 1 [1]
  IC50: 159 nM

## Cc1c(C(=O)NN2CCCCC2)nn(-c2ccc(Cl)cc2Cl)c1-c1ccc(Cl)cc1 [RIMONABANT]
Rattus norvegicus [2]
  Occ: >65%

## CCCCCCc1nc(-c2ccc(Cl)cc2)n(-c2ccc(Cl)cc2Cl)n1
Cannabinoid receptor 1 [3]
  IC50: 631 nM
Cannabinoid receptor 1 [4]
  IC50: 690 nM

## CS(=O)(=O)NCCCn1c(C(=O)N2CCC(C(N)=O)(N3CCC(F)(F)CC3)CC2)cc(-c2ccc(Cl)cc2Cl)c1-c1ccc(Cl)cc1
Mus musculus
  Activity: 28%

## CCc1c(C(=O)NN2CCCCC2)nn(-c2ccc(Cl)cc2Cl)c1-c1ccc(C#Cc2ccc(C(F)(F)F)cc2)s1
Nucleic Acid [5]
  Ratio: 1.2
Cannabinoid receptor 1 [3]
  IC50: 8.5 nM
Cannabinoid receptor 1 [6]
  Ki: 3 nM
Nucleic Acid [7]
  Ratio: 33

## CN/C(=N\S(=O)(=O)c1ccc(Cl)cc1)N1C[C@H](c2ccccc2)C(c2ccc(Cl)cc2)=N1 [IBIPINABANT]
Rattus norvegicus [8]
  Occ: 11%

## C[C@H](NC(=O)C(C)(C)Oc1ccc(C(F)(F)F)cn1)[C@@H](Cc1ccc(Cl)cc1)c1cccc(C#N)c1 [TARANABANT]
Rattus norvegicus [9]
  Occ: 30%

## CC1(C)C(=O)N(c2ccc(F)c(C(F)(F)F)c2)C(=O)C1Cc1ccc(F)cc1NC(=O)Nc1ccc(S(N)(=O)=O)cc1 (stereo not given)
Cannabinoid receptor 1 [10]
  IC50: 10 nM
  Ki: 9 nM
[11]
  fraction unbound: < 0.01
[12]
  Cmax: 430 nM
[13]
  logD: 3.66

## Cc1c(C(=O)NN2CCS(=O)(=O)CC2)nn(-c2ccc(Cl)cc2Cl)c1-c1ccc(C#CCCC#N)cc1
Nucleic Acid [5]
  Ratio: 33
Brain [14]
  concentration: 50 nM
Cannabinoid receptor 1 [15]
  Ki: 1 nM
Brain [16]
  concentration: 50 nM
